Test results taken from patent US20140271847A1, “FORMULATIONS AND METHODS FOR RAPID PENILE ERECTIONS” (SatisPharma, LLC, priority 2013, published 2014).
Counter-ions that a name gives are not always drawn.

How the values were obtained:
penis = assay: Time to penile erection / firmness after taking the ED medication or formulation; format: in vivo, human; conditions: blood circulation limited to about 50%; for time it remains effective / time to become effective: normal dose of 100 mg Viagra® or 10 mg Levitra®, one subject
Excerpt: Responses of individuals to ED medications may vary widely from one to another and from time to time. The nature and intensity of emotional and physical stimulation are significant factors, and the health of the individual can be significant. Fatigue, time of day, time since last coitus or ejaculation, and blood circulation are factors influencing response. One particular subject had no response to Cialis®. Their heart damage and occluded artery limit blood circulation to about 50%. Thus this particular subject is not a good benchmark for measuring the effectiveness of each formulation; this particular subject experiences a normal dose of 100 mg Viagra® or 10 mg Levitra® usually takes about 2 hours to become effective and then remains effective for about 8 hours (double the usual times for a person with normal blood circulation). Nevertheless, this subject has achieved erection and cotius within 30 minutes using some formulations of this invention.

[1] = cited from earlier work
[2] = Solubilities of ED medications in solvents known to permeate the skin (Example 1); format: physicochemical
Description: A series of experiments were performed in order to learn the solubilities of ED medications in solvents known to permeate the skin safely.

[3] = Solubility of ED medications as stated in the description; format: physicochemical
Excerpt: In order for an ED medication to be absorbed into mucosal tissues, it must first be dissolved in a medium of transport. […] Sildenafil citrate is also more soluble in ethanol than water and in propylene glycol than in water.

SMILES | time it remains effective (penis) | time to become effective (penis) | solubility in alcohols (in words) ([1]; alcohols) | solubility in water (in words) [1] | Result (solubility) ([2]; 35 mg sildenafil citrate in diethylene glycol monoethyl ether, 10 ml) | Result (solubility) ([2]; 35 mg sildenafil citrate in ethanol, 190 proof, 10 ml) | Result (solubility) ([2]; 35 mg sildenafil citrate in glycerin, 10 ml + citric acid, 150 mg) | Result (solubility) ([2]; 35 mg sildenafil citrate in isopropyl myristate, 10 ml) | Result (solubility) ([2]; 35 mg sildenafil citrate in propylene glycol, 10 ml) | Result (solubility) ([2]; 35 mg sildenafil citrate in triacetin 10 ml) | Result (solubility) ([2]; 49 mg sildenafil citrate in nicotine, 2 ml) | Result (solubility) ([2]; 70 mg sildenafil citrate in ethanol, 190 proof, 10 ml) | Result (solubility) ([2]; 70 mg sildenafil citrate in propylene glycol, 10 ml) | solubility in nicotine [3] | solubility in ethanol compared with water ([1]; ethanol versus water) | solubility in propylene glycol compared with water ([1]; propylene glycol versus water) | solubility in water relative to pH 7.0 ([1]; water at pH=4, relative to 3.5 mg/ml at pH=7.0) | solubility in water ([1]; water at pH=7.0) [mg/mL] | response to ED medication (penis; one particular subject)
CCCc1nc(C)c2c(=O)[nH]c(-c3cc(S(=O)(=O)N4CCN(CC)CC4)ccc3OCC)nn12 [Vardenafil, vardenafil hydrochloride] | about 8 hours | about 2 hours | freely soluble | freely soluble |  |  |  |  |  |  |  |  |  |  |  |  |  |  | 
CCCc1nn(C)c2c(=O)[nH]c(-c3cc(S(=O)(=O)N4CCN(C)CC4)ccc3OCC)nc12.O=C(O)CC(O)(CC(=O)O)C(=O)O [sildenafil citrate] | about 8 hours | about 2 hours |  |  | slightly soluble | fully soluble | dispersion | mostly soluble | fully soluble | dispersion | fully soluble | fully soluble | mostly soluble | surprisingly high solubility | more soluble | more soluble | about triple | 3.5 | 
CN1CC(=O)N2[C@H](c3ccc4c(c3)OCO4)c3[nH]c4ccccc4c3C[C@@H]2C1=O [Tadalafil, tadalafil] |  |  |  | freely soluble |  |  |  |  |  |  |  |  |  |  |  |  |  |  | no response
